From article PMC12298827, “Subchronic Toxicities of Four Per- and Polyfluoroalkyl Substances (PFASs) by Oral Exposure in Sprague–Dawley Rats” (Toxics, 2025) come the findings set out here.

The structures appear in SMILES notation. In brackets after ≈: the same amount, converted by molar mass. Like-named read-outs stand apart in the source and are kept apart here.

Data set [1] in a line: Stability of dosing formulations in corn oil. The class given is physicochemical. An excerpt: (§1) Based on solubility, corn oil (Welsh, Holme & Clark Inc., Newark, NJ, USA) was used as the vehicle for all four PFASs. Gas chromatography (GC) with flame ionization detection (FID) was used for the analysis of the PFNAC, PFHI, and MHFPK formulations, and a high-performance liquid chromatography (HPLC) method with ultraviolet spectroscopy was used for the CTFPA formulation. The details of the dosing solution analytical conditions are summarized in supplemental Tables S1 and S2. These analytical methods were developed specifically for these subchronic toxicity studies. […] Dosing solutions were prepared and replaced between at least every 29 days and no more than every 39 days.
(§2) PFNAC, PFHI, and MHFPK were soluble in corn oil up to 67, 200, and 100 mg/mL, respectively. As solubility in aqueous vehicles was 40 mg/mL or less for all three chemicals, corn oil was chosen as the vehicle. PFNAC was stable at the ambient temperature for 51 days at target concentrations of 0.2 and 10 mg/mL PFHI was stable in corn oil at ambient temperatures and target concentrations of 1 and 80 mg/mL for up to 70 days. MFHPK was stable in corn oil at room temperature for up to 44 days at target concentrations of 5 and 100 mg/mL. CTFPA was soluble in both deionized (DI) water and corn oil at 200 mg/mL when stored refrigerated overnight. […] Thus, corn oil was chosen as the vehicle for CTFPA. The stability of the CTFPA in the corn oil was evaluated for 8, 13, 15, 23, 35, and 42 days stored refrigerated in plastic bottles. CTFPA at 40 mg/mL was stable for up to 42 days. CTFPA at 0.6 mg/mL was stable for up to […] when refrigerated in plastic bottles but by 42 days had decreased to approximately 81%.

Data set [2] can be described thus: Solubility in dosing vehicles. Format: physicochemical.
Excerpt: as §1, §2

[3] abbreviates: corn oil, oil or lipid, read-out: Solubility in corn oil.

As usually defined, the solubility is the dissolved amount per volume that the medium holds.

Regarding `O=C(O)C(F)(Cl)C(F)(F)F` (stereo not drawn) [CTFPA, 2-Chloro-2,3,3,3-tetrafluoropropanoic acid], the “Concentration remaining in corn oil” value in data set [1] (0.6 mg/mL, by 42 days, refrigerated) was “approximately 81%”. The “Stable in corn oil for” value in data set [1] (0.6 mg/mL, refrigerated in plastic bottles) is listed as “up to 22 days”; in data set [1] (40 mg/mL, refrigerated in plastic bottles), “up to 42 days”. Moreover, in data set [2] (DI water solution), the “pH of the DI water solution” value is listed as under 1. Also, the solubility in data set [2] (corn oil, stored refrigerated overnight, read-out: Solubility in corn oil) is 200 mg/mL (≈ 1110 mM); in data set [2] (deionized water, stored refrigerated overnight, read-out: Solubility in deionized (DI) water) it was 200 mg/mL (≈ 1110 mM).

For `C=CC(=O)OCC(F)(F)C(F)(F)C(F)(F)C(F)(F)C(F)(F)C(F)(F)C(F)(F)C(F)F` [PFNAC, 1H,1H,9H-Perfluorononyl acrylate], the “Stable in corn oil for” value in data set [1] (ambient temperature, 0.2 and 10 mg/mL) is given as 51 days. In data set [2] (setting [3]), the solubility is at most 67 mg/mL.

On to `FC(F)(F)C(F)(F)C(F)(F)C(F)(F)CCI` [PFHI, 1H,1H,2H,2H-Perfluorohexyl iodide], for which the “Stable in corn oil for” value in data set [1] (ambient temperatures, 1 and 80 mg/mL) is listed as “up to 70 days”. Also, the solubility in data set [2] (setting [3]) was at most 200 mg/mL.

Take `CC(=O)C(F)(F)C(F)(F)C(F)(F)F` [MHFPK, Methyl heptafluoropropyl ketone]: the “Stable in corn oil for” value in data set [1] (room temperature, 5 and 100 mg/mL) is reported as “up to 44 days”. The solubility in data set [2] (setting [3]) was at most 100 mg/mL.
